From US11965039B2, “Compstatin analogues and their medical uses” (priority 2018, dated 2024) come the findings set out here.

Like-named read-outs stand apart in the source and are kept apart here. Starred links: 1 amine or outer side, 2 acyl side, 3 side chain; linkers in the order of their positions; H or OH if unused. Positions of bridges follow the written chain, without caps; N, C: chain ends. Non-standard residues stand in square brackets, D forms with d. Residues, ends and D or L forms follow the SMILES beside them. Groups on a side chain read outwards from the residue. *: point of attachment. (Piperazine-1-yl)‑acetyl = piperazin-1-yl-acetyl spacer, O=C(CN1CCN([*:1])CC1)[*:2]; Trp(1-Me) = Cn1cc(C[C@H](N)C(=O)O)c2ccccc21; C18 diacid = O=C(O)CCCCCCCCCCCCCCCCC(=O)*; C16 diacid = O=C(O)CCCCCCCCCCCCCCC(=O)*; γGlu = O=C(O)[C@H](CCC(=O)[*:2])N[*:1]; AEEA = NCCOCCOCC(=O)O; Sar = CNCC(=O)O

One may read the IC50 as the midpoint of a concentration-inhibition curve.

The subject of series [1] is classical complement pathway. As to the kind of experiment: In vitro haemolysis assay (inhibition of classical complement pathway). The series is classed as cell-based, human. As to conditions: human serum, sensitized sheep red blood cells. In outline:
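Compound dilutions preincubated 15 min at room temperature with diluted human serum (titrated per batch for 70-90% maximal haemolysis), then antibody-sensitized sheep RBC (10^7/well) added for 30 min at 37 °C in Tris/casein buffer, pH 7.4. Stopped with EDTA; haemolysis read at 405 nm; IC50 by 4PL fit.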

The nature of series [2]: Solubility test at 10 mg/mL (visual inspection and light scattering). Type of series: physicochemical. As to conditions: for Solubility, Condition 1: Acetate pH 4; for Solubility, Condition 2: Acetate pH 5; for Solubility, Condition 3: Phosphate pH 6; for Solubility, Condition 4: Phosphate pH 7; for Solubility, Condition 5: Phosphate pH 7.5.
In series [3] the target is Human C3 (Complement tech cat #A113c) (human, UniProt P01024 23-1663). As to the kind of experiment: cell-based or functional assay.
Setting [4] is: Table 3, given as upper bounds, read-out: IC50, inhibition of hemolysis.

Sequence of Human C3 (Complement tech cat #A113c) (P01024 23-1663 limits assumed): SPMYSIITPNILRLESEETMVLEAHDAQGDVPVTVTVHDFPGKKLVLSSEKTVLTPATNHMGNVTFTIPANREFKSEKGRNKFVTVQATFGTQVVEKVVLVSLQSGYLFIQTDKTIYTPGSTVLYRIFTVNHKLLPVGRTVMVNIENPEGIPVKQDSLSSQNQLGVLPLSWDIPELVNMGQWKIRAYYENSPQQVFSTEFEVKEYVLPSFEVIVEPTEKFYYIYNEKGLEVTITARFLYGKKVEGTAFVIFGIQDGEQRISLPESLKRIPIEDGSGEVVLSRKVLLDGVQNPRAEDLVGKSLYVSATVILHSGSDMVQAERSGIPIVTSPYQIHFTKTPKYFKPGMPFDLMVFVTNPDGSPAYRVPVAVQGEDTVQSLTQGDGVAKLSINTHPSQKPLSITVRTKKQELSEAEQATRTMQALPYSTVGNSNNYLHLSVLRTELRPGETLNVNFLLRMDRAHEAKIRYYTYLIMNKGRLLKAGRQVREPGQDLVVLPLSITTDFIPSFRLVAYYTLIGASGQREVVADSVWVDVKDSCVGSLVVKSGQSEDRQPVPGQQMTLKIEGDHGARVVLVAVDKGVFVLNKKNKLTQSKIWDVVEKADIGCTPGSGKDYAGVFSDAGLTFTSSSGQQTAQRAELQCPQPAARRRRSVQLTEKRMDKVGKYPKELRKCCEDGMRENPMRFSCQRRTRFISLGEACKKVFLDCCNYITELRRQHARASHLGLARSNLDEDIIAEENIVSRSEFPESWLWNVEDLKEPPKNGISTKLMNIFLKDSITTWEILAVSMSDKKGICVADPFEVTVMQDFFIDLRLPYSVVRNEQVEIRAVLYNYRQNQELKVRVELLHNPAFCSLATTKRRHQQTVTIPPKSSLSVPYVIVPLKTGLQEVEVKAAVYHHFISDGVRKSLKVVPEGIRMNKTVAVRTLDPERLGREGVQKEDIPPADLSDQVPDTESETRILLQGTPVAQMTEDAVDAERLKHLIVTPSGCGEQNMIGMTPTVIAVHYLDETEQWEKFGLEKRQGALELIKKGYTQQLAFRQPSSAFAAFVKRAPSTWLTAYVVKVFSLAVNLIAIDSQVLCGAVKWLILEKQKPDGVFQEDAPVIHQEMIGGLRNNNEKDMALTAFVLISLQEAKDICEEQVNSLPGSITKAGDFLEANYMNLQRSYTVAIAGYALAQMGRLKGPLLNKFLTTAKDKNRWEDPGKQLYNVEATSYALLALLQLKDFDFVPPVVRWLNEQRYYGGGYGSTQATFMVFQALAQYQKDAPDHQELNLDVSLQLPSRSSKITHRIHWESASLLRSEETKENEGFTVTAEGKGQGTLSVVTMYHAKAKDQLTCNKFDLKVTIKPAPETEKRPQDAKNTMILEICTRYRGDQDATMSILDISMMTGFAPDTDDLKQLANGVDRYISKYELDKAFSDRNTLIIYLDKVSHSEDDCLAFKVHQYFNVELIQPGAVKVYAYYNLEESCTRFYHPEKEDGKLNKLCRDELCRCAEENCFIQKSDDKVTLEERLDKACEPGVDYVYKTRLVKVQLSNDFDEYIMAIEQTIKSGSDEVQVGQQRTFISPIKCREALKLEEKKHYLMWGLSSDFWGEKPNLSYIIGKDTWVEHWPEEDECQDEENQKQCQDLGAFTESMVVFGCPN

Turning to `CC[C@H](C)[C@@H]1NC(=O)[C@@H](NC(=O)[C@H](Cc2ccc(O)cc2)NC(=O)[C@H](C)NC(=O)[C@H](CO)NC(=O)CNC(=O)[C@H](CCC(=O)O)NC(C)=O)CSSC[C@@H](C(=O)N(C)CC(=O)N[C@@H](CCC(=O)O)C(N)=O)NC(=O)[C@H](CCCCNC(=O)COCCOCCNC(=O)COCCOCCNC(=O)CC[C@H](NC(=O)CCCCCCCCCCCCCCC(=O)O)C(=O)O)NC(=O)[C@H](Cc2c[nH]cn2)NC(=O)[C@H](CCC(=O)O)NC(=O)CNC(=O)[C@H](Cc2c[nH]c3ccccc23)NC(=O)[C@H](CC(=O)O)NC(=O)[C@H](CCC(N)=O)NC(=O)[C@H](Cc2cn(C)c3ccccc23)NC1=O` [Compound 103, Ac-EGSAYC(1)I[1-Me-Trp]QDWGEH-[K([15-carboxy-pentadecanoyl][γGlu][Peg3][Peg3])]-C(1)[Sar]E-NH2] (Ac-EGSAYCI[Trp(1-Me)]QDWGEHK([AEEA-AEEA-γGlu-C16 diacid])C[Sar]E-NH2; disulfide 6-16), in series [1] (setting [4]), the IC50 was below 100 nM. Also, in series [2], the “Solubility, Condition 1” value was “− (“−” denotes lack of solubility at the given condition, as UV absorbance at 340 nm exceeds 0.1 AU and/or it is visibly turbid or contains particles)”; the “Solubility, Condition 2” value was “+ (“+” denotes solubility at the given condition, as determined by UV absorbance being less than 0.1 AU at 340 nm and the sample being clear when manually inspected)”; the “Solubility, Condition 3” value is “+ (“+” denotes solubility at the given condition, as determined by UV absorbance being less than 0.1 AU at 340 nm and the sample being clear when manually inspected)”; the “Solubility, Condition 4” value is “+ (“+” denotes solubility at the given condition, as determined by UV absorbance being less than 0.1 AU at 340 nm and the sample being clear when manually inspected)”. Besides, the “Solubility, Condition 5” value in series [2] was “+ (“+” denotes solubility at the given condition, as determined by UV absorbance being less than 0.1 AU at 340 nm and the sample being clear when manually inspected)”.
Take `CC[C@H](C)[C@H](NC(C)=O)C(=O)N[C@H]1CSSC[C@@H](C(=O)N[C@H](C(N)=O)[C@@H](C)O)NC(=O)[C@H](CCCNC(=N)N)NC(=O)[C@H](Cc2c[nH]cn2)NC(=O)[C@H](C)NC(=O)CNC(=O)[C@H](Cc2c[nH]c3ccccc23)NC(=O)[C@H](CC(=O)O)NC(=O)[C@H](CCC(N)=O)NC(=O)[C@H](Cc2c[nH]c3ccccc23)NC(=O)[C@H]([C@@H](C)CC)NC1=O` [Compound 1] (Ac-ICIWQDWGAHRCT-NH2; disulfide 2-12): in series [1] (Table 2, read-out: CP hemolysis IC50), the IC50 turned out to be 150 nM. The IC50 in series [1] (setting [4]) is below 250 nM. For the same molecule, in series [2], the “Solubility, Condition 1” value was “+ (“+” denotes solubility at the given condition, as determined by UV absorbance being less than 0.1 AU at 340 nm and the sample being clear when manually inspected)”; the “Solubility, Condition 2” value is reported as “− (“−” denotes lack of solubility at the given condition, as UV absorbance at 340 nm exceeds 0.1 AU and/or it is visibly turbid or contains particles)”; the “Solubility, Condition 3” value is reported as “− (“−” denotes lack of solubility at the given condition, as UV absorbance at 340 nm exceeds 0.1 AU and/or it is visibly turbid or contains particles)”; the “Solubility, Condition 4” value is listed as “− (“−” denotes lack of solubility at the given condition, as UV absorbance at 340 nm exceeds 0.1 AU and/or it is visibly turbid or contains particles)”. Also, in series [2], the “Solubility, Condition 5” value is reported as “− (“−” denotes lack of solubility at the given condition, as UV absorbance at 340 nm exceeds 0.1 AU and/or it is visibly turbid or contains particles)”.
For the molecule `CC[C@H](C)[C@@H]1NC(=O)[C@@H](NC(=O)[C@H](Cc2ccccc2)NC(=O)[C@H](C)NC(=O)[C@H](CO)NC(=O)CNC(=O)[C@H](CCC(=O)O)NC(C)=O)CSSC[C@@H](C(=O)N(C)CC(=O)N[C@@H](CCC(=O)O)C(N)=O)NC(=O)[C@H](CCCNC(=N)N)NC(=O)[C@H](Cc2c[nH]cn2)NC(=O)[C@H](CCC(=O)O)NC(=O)CNC(=O)[C@H](Cc2c[nH]c3ccccc23)NC(=O)[C@H](CC(=O)O)NC(=O)[C@H](CCC(N)=O)NC(=O)[C@H](Cc2cn(C)c3ccccc23)NC1=O` [Compound 53] (Ac-EGSAFCI[Trp(1-Me)]QDWGEHRC[Sar]E-NH2; disulfide 6-16), the concentration for half-maximal inhibition (IC50) in series [1] (setting [4]) is below 100 nM. For the same molecule, in series [2], the “Solubility, Condition 1” value is listed as “− (“−” denotes lack of solubility at the given condition, as UV absorbance at 340 nm exceeds 0.1 AU and/or it is visibly turbid or contains particles)”; the “Solubility, Condition 2” value is given as “− (“−” denotes lack of solubility at the given condition, as UV absorbance at 340 nm exceeds 0.1 AU and/or it is visibly turbid or contains particles)”; the “Solubility, Condition 3” value is “+ (“+” denotes solubility at the given condition, as determined by UV absorbance being less than 0.1 AU at 340 nm and the sample being clear when manually inspected)”; the “Solubility, Condition 4” value was “+ (“+” denotes solubility at the given condition, as determined by UV absorbance being less than 0.1 AU at 340 nm and the sample being clear when manually inspected)”. Also, in series [2], the “Solubility, Condition 5” value was “+ (“+” denotes solubility at the given condition, as determined by UV absorbance being less than 0.1 AU at 340 nm and the sample being clear when manually inspected)”.
With `CC[C@H](C)[C@@H]1NC(=O)[C@@H](NC(=O)[C@H](Cc2ccc(O)cc2)NC(=O)[C@H](CCC(=O)O)NC(=O)[C@H](CO)NC(=O)CNC(=O)[C@H](CCC(=O)O)NC(=O)CCCCCCCCCCCCCCCCC(=O)O)CSSC[C@@H](C(=O)N(C)CC(=O)N[C@@H](CCC(=O)O)C(N)=O)NC(=O)[C@H](CCCNC(=N)N)NC(=O)[C@H](Cc2c[nH]cn2)NC(=O)[C@H](CCC(=O)O)NC(=O)CNC(=O)[C@H](Cc2c[nH]c3ccccc23)NC(=O)[C@H](CC(=O)O)NC(=O)[C@H](CCC(N)=O)NC(=O)[C@H](Cc2cn(C)c3ccccc23)NC1=O` [Compound 108] ({C18 diacid}-EGSEYCI[Trp(1-Me)]QDWGEHRC[Sar]E-NH2; disulfide 6-16), the IC50 in series [1] (setting [4]) was below 500 nM. Further, in series [2], the “Solubility, Condition 1” value is recorded as “− (“−” denotes lack of solubility at the given condition, as UV absorbance at 340 nm exceeds 0.1 AU and/or it is visibly turbid or contains particles)”; the “Solubility, Condition 2” value is on record as “− (“−” denotes lack of solubility at the given condition, as UV absorbance at 340 nm exceeds 0.1 AU and/or it is visibly turbid or contains particles)”; the “Solubility, Condition 3” value was “+ (“+” denotes solubility at the given condition, as determined by UV absorbance being less than 0.1 AU at 340 nm and the sample being clear when manually inspected)”; the “Solubility, Condition 4” value was “+ (“+” denotes solubility at the given condition, as determined by UV absorbance being less than 0.1 AU at 340 nm and the sample being clear when manually inspected)”. For the same molecule, the “Solubility, Condition 5” value in series [2] is “+ (“+” denotes solubility at the given condition, as determined by UV absorbance being less than 0.1 AU at 340 nm and the sample being clear when manually inspected)”.

B1: Compound 96 (peptide)
peptide: Ac-ICIWQDWGEHRCTEGK([AEEA-AEEA-γGlu-C18 diacid])-NH2
modifications: disulfide 2-12
SMILES: CC[C@H](C)[C@H](NC(C)=O)C(=O)N[C@H]1CSSC[C@@H](C(=O)N[C@H](C(=O)N[C@@H](CCC(=O)O)C(=O)NCC(=O)N[C@@H](CCCCNC(=O)COCCOCCNC(=O)COCCOCCNC(=O)CC[C@H](NC(=O)CCCCCCCCCCCCCCCCC(=O)O)C(=O)O)C(N)=O)[C@@H](C)O)NC(=O)[C@H](CCCNC(=N)N)NC(=O)[C@H](Cc2c[nH]cn2)NC(=O)[C@H](CCC(=O)O)NC(=O)CNC(=O)[C@H](Cc2c[nH]c3ccccc23)NC(=O)[C@H](CC(=O)O)NC(=O)[C@H](CCC(N)=O)NC(=O)[C@H](Cc2c[nH]c3ccccc23)NC(=O)[C@H]([C@@H](C)CC)NC1=O
B1: in series [3], the “inhibition of hemolysis IC50” value was below 1000 nM.

B2: Compound 97 (peptide)
peptide: Ac-ICIWQDWGEHRCTEGEK([AEEA-AEEA-γGlu-C18 diacid])-NH2
modifications: disulfide 2-12
SMILES: CC[C@H](C)[C@H](NC(C)=O)C(=O)N[C@H]1CSSC[C@@H](C(=O)N[C@H](C(=O)N[C@@H](CCC(=O)O)C(=O)NCC(=O)N[C@@H](CCC(=O)O)C(=O)N[C@@H](CCCCNC(=O)COCCOCCNC(=O)COCCOCCNC(=O)CC[C@H](NC(=O)CCCCCCCCCCCCCCCCC(=O)O)C(=O)O)C(N)=O)[C@@H](C)O)NC(=O)[C@H](CCCNC(=N)N)NC(=O)[C@H](Cc2c[nH]cn2)NC(=O)[C@H](CCC(=O)O)NC(=O)CNC(=O)[C@H](Cc2c[nH]c3ccccc23)NC(=O)[C@H](CC(=O)O)NC(=O)[C@H](CCC(N)=O)NC(=O)[C@H](Cc2c[nH]c3ccccc23)NC(=O)[C@H]([C@@H](C)CC)NC1=O
Consider B2, for which the “inhibition of hemolysis IC50” value in series [3] is below 250 nM.

B3: Compound 95 (peptide)
peptide: Ac-ICIWQDWGEHRCTEGK([AEEA-AEEA-(Piperazine-1-yl)‑acetyl-C16 diacid])-NH2
modifications: disulfide 2-12
Turning to B3, the “inhibition of hemolysis IC50” value in series [3] is below 500 nM.

B4: Compound 94 (peptide)
peptide: Ac-ICIWQDWGEHRCTEGEK([AEEA-AEEA-γGlu-C16 diacid])-NH2
modifications: disulfide 2-12
SMILES: CC[C@H](C)[C@H](NC(C)=O)C(=O)N[C@H]1CSSC[C@@H](C(=O)N[C@H](C(=O)N[C@@H](CCC(=O)O)C(=O)NCC(=O)N[C@@H](CCC(=O)O)C(=O)N[C@@H](CCCCNC(=O)COCCOCCNC(=O)COCCOCCNC(=O)CC[C@H](NC(=O)CCCCCCCCCCCCCCC(=O)O)C(=O)O)C(N)=O)[C@@H](C)O)NC(=O)[C@H](CCCNC(=N)N)NC(=O)[C@H](Cc2c[nH]cn2)NC(=O)[C@H](CCC(=O)O)NC(=O)CNC(=O)[C@H](Cc2c[nH]c3ccccc23)NC(=O)[C@H](CC(=O)O)NC(=O)[C@H](CCC(N)=O)NC(=O)[C@H](Cc2c[nH]c3ccccc23)NC(=O)[C@H]([C@@H](C)CC)NC1=O
B4: the “inhibition of hemolysis IC50” value in series [3] is below 500 nM.
